From ChEMBL document CHEMBL3832761, “MMV Pathogen Box Bioactivity Data” (2017)
Values after ≈ are worked out from the molar mass of the structure shown.

Assays:
Format in all cases: functional
[1] = system: Mycobacterium tuberculosis; test: (§1) AntiMycobacterium tuberculosis activity day 10 in 7H9/2.5mM butyrate/pH6/0.1mM nitrite MIC90 (uM); details: 240 h
[2] = system: Mycobacterium tuberculosis; test: AntiMycobacterium tuberculosis activity day 21 MIC99 in 7H9/2.5mM butyrate/pH6/0.1mM nitrite MIC99 (uM); details: 504 h
[3] = system: Mycobacterium tuberculosis; test: AntiMycobacterium tuberculosis activity 1-week 7H9/cholesterol/BSA/Tx MIC (uM); details: 168 h
[4] = system: Mycobacterium tuberculosis; test: AntiMycobacterium tuberculosis activity 1-week 7H9/ADC/Tw MIC (uM); details: 168 h
[5] = system: Mycobacterium tuberculosis; test: AntiMycobacterium tuberculosis activity Replicating form: Average MIC90 (uM)
[6] = system: Mycobacterium tuberculosis; test: AntiMycobacterium tuberculosis activity day 21 in 7H9/2.5mM butyrate/pH6/0.1mM nitrite MIC90 (uM); details: 504 h
[7] = system: Mycobacterium tuberculosis; test: AntiMycobacterium tuberculosis activity 2-week Alamar Blue 7H9/cholesterol/BSA/Tx MIC (uM); details: 336 h
[8] = system: Mycobacterium tuberculosis; test: AntiMycobacterium tuberculosis activity Non-Replicating form: Average MIC90 (uM)
[9] = system: Mycobacterium tuberculosis; test: AntiMycobacterium tuberculosis activity 2-week 7H9/DPPC/cholesterol/BSA/Tx MIC (uM); details: 336 h
HepG2 = test: HepG2 CC50 (uM) Cytotoxicity; details: Homo sapiens
[10] = system: Mycobacterium tuberculosis; test: AntiMycobacterium tuberculosis activity 2-week 7H9/glucose/BSA/Tx MIC (uM); details: 336 h
[11] = system: Mycobacterium tuberculosis; test: AntiMycobacterium tuberculosis activity 1-week 7H9/DPPC/cholesterol/BSA/Tx MIC (uM); details: 168 h
[12] = system: Mycobacterium tuberculosis; test: AntiMycobacterium tuberculosis activity 2-week Alamar Blue 7H9/ADC/Tw MIC (uM); details: 336 h
[13] = system: Mycobacterium tuberculosis; test: AntiMycobacterium tuberculosis activity 2-week GAST/Fe MIC (uM); details: 336 h
[14] = system: Mycobacterium tuberculosis; test: AntiMycobacterium tuberculosis activity 1-week GAST/Fe MIC (uM); details: 168 h
[15] = system: Mycobacterium tuberculosis; test: as §1; details: 240 h; remark: listed apart in the source
[16] = system: Mycobacterium tuberculosis; test: AntiMycobacterium tuberculosis activity 2-week 7H9/ADC/Tw MIC (uM); details: 336 h
[17] = system: Mycobacterium tuberculosis; test: AntiMycobacterium tuberculosis activity 1-week 7H9/glucose/BSA/Tx MIC (uM); details: 168 h

SMILES | MIC90 [1] [µM] | MIC [2] [µM] | MIC [3] [µM] | MIC [4] [µM] | MIC90 [5] [µM] | MIC90 [6] [µM] | MIC [7] [µM] | MIC90 [8] [µM] | MIC [9] [µM] | CC50 (HepG2) [µM] | MIC [10] [µM] | MIC [11] [µM] | MIC [12] [µM] | MIC [13] [µM] | MIC [14] [µM] | MIC90 [15] [µM] | MIC [16] [µM] | MIC [17] [µM]
Cc1nnc(NCc2cccc(Cl)c2)c2ccccc12 | 25 (≈ 7.09 µg/mL) | > 50 | 19 (≈ 5.39 µg/mL) | 50 (≈ 14.2 µg/mL) | > 100 | > 50 | > 50 | 4.61 (≈ 1.31 µg/mL) | > 50 | 76 | > 50 | ≥ 50 | 1.56 (≈ 0.443 µg/mL) | 0.6 (≈ 0.17 µg/mL) | 0.2 (≈ 0.0568 µg/mL) | > 50 | > 50 | > 50
CC(=O)NCC1CN(c2ccc(-c3ccc(CO)cc3)c(F)c2)C(=O)O1 (configuration not stated) | 0.39 (≈ 0.14 µg/mL) | 1.5 (≈ 0.538 µg/mL) | 0.39 (≈ 0.14 µg/mL) | 0.39 (≈ 0.14 µg/mL) | 0.49 (≈ 0.176 µg/mL) | 0.78 (≈ 0.28 µg/mL) | 0.39 (≈ 0.14 µg/mL) | 0.32 (≈ 0.115 µg/mL) | 0.6 (≈ 0.215 µg/mL) | > 100 | 0.6 (≈ 0.215 µg/mL) | 0.39 (≈ 0.14 µg/mL) | 0.39 (≈ 0.14 µg/mL) | 0.3 (≈ 0.108 µg/mL) | 0.1 (≈ 0.0358 µg/mL) | 1.5 (≈ 0.538 µg/mL) | 0.6 (≈ 0.215 µg/mL) | 0.6 (≈ 0.215 µg/mL)
c1coc(CNc2nc(N3CCCCC3)nc3ccccc23)c1 | 12.5 (≈ 3.85 µg/mL) | 25 (≈ 7.71 µg/mL) | 4.7 (≈ 1.45 µg/mL) | 19 (≈ 5.86 µg/mL) | 8.41 (≈ 2.59 µg/mL) | 25 (≈ 7.71 µg/mL) | 6.25 (≈ 1.93 µg/mL) | 27.8 (≈ 8.58 µg/mL) | 9.4 (≈ 2.9 µg/mL) | 18.6 | 12.5 (≈ 3.85 µg/mL) | 6.25 (≈ 1.93 µg/mL) | 25 (≈ 7.71 µg/mL) | 9.4 (≈ 2.9 µg/mL) | 9.4 (≈ 2.9 µg/mL) | 12.5 (≈ 3.85 µg/mL) | 25 (≈ 7.71 µg/mL) | 6.25 (≈ 1.93 µg/mL)
CCCn1nnc(NC(=O)COc2ccc(C3CCCCC3)cc2)n1 | 25 (≈ 8.59 µg/mL) | 50 (≈ 17.2 µg/mL) | 6.25 (≈ 2.15 µg/mL) | 19 (≈ 6.53 µg/mL) | 40.1 (≈ 13.8 µg/mL) | 50 (≈ 17.2 µg/mL) | 25 (≈ 8.59 µg/mL) | 98.5 (≈ 33.8 µg/mL) | 37 (≈ 12.7 µg/mL) | > 100 | 37 (≈ 12.7 µg/mL) | 19 (≈ 6.53 µg/mL) | 37 (≈ 12.7 µg/mL) | 12.5 (≈ 4.29 µg/mL) | 6.25 (≈ 2.15 µg/mL) | 50 (≈ 17.2 µg/mL) | 37 (≈ 12.7 µg/mL) | 19 (≈ 6.53 µg/mL)
CCC(C)NC(=O)c1ccc(NC(=O)C2(c3ccccc3)CCCC2)cc1 (configuration not stated) | > 50 | > 50 | > 50 | > 50 | > 100 | > 50 | > 50 | > 100 | > 50 | > 100 | > 50 | > 50 | > 50 | > 50 | 12.5 (≈ 4.56 µg/mL) | > 50 | > 50 | > 50
O=C(NCc1ccco1)N1CCN(Cc2ccc(Cl)s2)CC1 | 50 (≈ 17 µg/mL) | > 50 | 37 (≈ 12.6 µg/mL) | > 50 | > 100 | > 50 | 12.5 (≈ 4.25 µg/mL) | 90.2 (≈ 30.6 µg/mL) | 50 (≈ 17 µg/mL) | > 100 | > 50 | 37 (≈ 12.6 µg/mL) | 12.5 (≈ 4.25 µg/mL) | 1.2 (≈ 0.408 µg/mL) | 0.6 (≈ 0.204 µg/mL) | > 50 | > 50 | > 50
CCCc1ccc(S(=O)(=O)Nc2ccc(CN3CCN(CC4CC4)CC3)cc2)cc1 | 50 (≈ 21.4 µg/mL) | > 50 | 6.25 (≈ 2.67 µg/mL) | 19 (≈ 8.12 µg/mL) | 18.7 (≈ 8.01 µg/mL) | 50 (≈ 21.4 µg/mL) | 6.25 (≈ 2.67 µg/mL) | 47.4 (≈ 20.3 µg/mL) | 6.25 (≈ 2.67 µg/mL) | 17.7 | 9.4 (≈ 4.02 µg/mL) | 4.7 (≈ 2.01 µg/mL) | 19 (≈ 8.12 µg/mL) | 12.5 (≈ 5.35 µg/mL) | 12.5 (≈ 5.35 µg/mL) | > 50 | 19 (≈ 8.12 µg/mL) | 9.4 (≈ 4.02 µg/mL)
CCc1nc2ccccc2n1CC(O)COc1cc(C)ccc1Cl (configuration not stated) | 25 (≈ 8.62 µg/mL) | > 50 | 9.4 (≈ 3.24 µg/mL) | 37 (≈ 12.8 µg/mL) | 78 (≈ 26.9 µg/mL) | 50 (≈ 17.2 µg/mL) | 9.4 (≈ 3.24 µg/mL) | 70 (≈ 24.1 µg/mL) | 25 (≈ 8.62 µg/mL) | 43.2 | ≥ 50 | 12.5 (≈ 4.31 µg/mL) | 37 (≈ 12.8 µg/mL) | 12.5 (≈ 4.31 µg/mL) | 12.5 (≈ 4.31 µg/mL) | > 50 | ≥ 50 | 37 (≈ 12.8 µg/mL)
N#Cc1ccc(-c2ccc(OCC(N)=O)cc2)cc1 | 25 (≈ 6.31 µg/mL) | > 50 | 12.5 (≈ 3.15 µg/mL) | 37 (≈ 9.33 µg/mL) | 23.2 (≈ 5.86 µg/mL) | 25 (≈ 6.31 µg/mL) | ≥ 50 | 13.7 (≈ 3.46 µg/mL) | 50 (≈ 12.6 µg/mL) | > 100 | 50 (≈ 12.6 µg/mL) | 12.5 (≈ 3.15 µg/mL) | 50 (≈ 12.6 µg/mL) | 4.7 (≈ 1.19 µg/mL) | 4.7 (≈ 1.19 µg/mL) | > 50 | > 50 | 25 (≈ 6.31 µg/mL)
O=C(C1CCN(c2nnc(-n3cccc3)s2)CC1)N1CCC(Cc2ccccc2)CC1 | 0.19 (≈ 0.0828 µg/mL) | 0.78 (≈ 0.34 µg/mL) | 0.02 (≈ 0.00871 µg/mL) | 0.1 (≈ 0.0436 µg/mL) | 0.94 (≈ 0.409 µg/mL) | 0.19 (≈ 0.0828 µg/mL) | 0.05 (≈ 0.0218 µg/mL) | 0.8 (≈ 0.348 µg/mL) | 0.04 (≈ 0.0174 µg/mL) | > 100 | 0.1 (≈ 0.0436 µg/mL) | 0.02 (≈ 0.00871 µg/mL) | 0.07 (≈ 0.0305 µg/mL) | 0.02 (≈ 0.00871 µg/mL) | 0.02 (≈ 0.00871 µg/mL) | 0.78 (≈ 0.34 µg/mL) | 0.07 (≈ 0.0305 µg/mL) | 0.1 (≈ 0.0436 µg/mL)
O=C(Nc1nnc(-c2ccc(Cl)s2)o1)c1ccc(Cl)s1 | 6.5 (≈ 2.25 µg/mL) | > 50 | 3.13 (≈ 1.08 µg/mL) | 9.4 (≈ 3.25 µg/mL) | 35.2 (≈ 12.2 µg/mL) | 6.25 (≈ 2.16 µg/mL) | 6.25 (≈ 2.16 µg/mL) | 2.76 (≈ 0.956 µg/mL) | 12.5 (≈ 4.33 µg/mL) | 50.1 | 6.25 (≈ 2.16 µg/mL) | 6.25 (≈ 2.16 µg/mL) | 9.4 (≈ 3.25 µg/mL) | 1.2 (≈ 0.415 µg/mL) | 0.78 (≈ 0.27 µg/mL) | > 50 | 9.4 (≈ 3.25 µg/mL) | 4.7 (≈ 1.63 µg/mL)
c1ccc(C[C@@H]2CN(c3nccc(Oc4ccc(-n5ccnc5)cc4)n3)CCN2)cc1 | 25 (≈ 10.3 µg/mL) | 50 (≈ 20.6 µg/mL) | 9.4 (≈ 3.88 µg/mL) | 50 (≈ 20.6 µg/mL) | 16.5 (≈ 6.82 µg/mL) | 25 (≈ 10.3 µg/mL) | 12.5 (≈ 5.16 µg/mL) | 38.1 (≈ 15.7 µg/mL) | 37 (≈ 15.3 µg/mL) | 29 | 50 (≈ 20.6 µg/mL) | 25 (≈ 10.3 µg/mL) | 19 (≈ 7.84 µg/mL) | 37 (≈ 15.3 µg/mL) | 37 (≈ 15.3 µg/mL) | 50 (≈ 20.6 µg/mL) | 50 (≈ 20.6 µg/mL) | 37 (≈ 15.3 µg/mL)
O=C(NC1CCCCC1)N1CCN(Cc2ccc3c(c2)OCO3)CC1 | > 50 | 50 (≈ 17.3 µg/mL) | 6.25 (≈ 2.16 µg/mL) | > 50 | > 100 | 50 (≈ 17.3 µg/mL) | 12.5 (≈ 4.32 µg/mL) | > 100 | 50 (≈ 17.3 µg/mL) | > 100 | > 50 | 9.4 (≈ 3.25 µg/mL) | 12.5 (≈ 4.32 µg/mL) | 1.2 (≈ 0.415 µg/mL) | 0.78 (≈ 0.269 µg/mL) | > 50 | > 50 | > 50
O=C(NCc1ccoc1)N1CCN(Cc2ccc3c(c2)OCO3)CC1 | 6.25 (≈ 2.15 µg/mL) | 25 (≈ 8.58 µg/mL) | 3.13 (≈ 1.07 µg/mL) | > 50 | > 100 | 25 (≈ 8.58 µg/mL) | 2.3 (≈ 0.79 µg/mL) | 57.1 (≈ 19.6 µg/mL) | 25 (≈ 8.58 µg/mL) | > 100 | > 50 | 4.7 (≈ 1.61 µg/mL) | 6.25 (≈ 2.15 µg/mL) | 0.78 (≈ 0.268 µg/mL) | 0.39 (≈ 0.134 µg/mL) | 6.25 (≈ 2.15 µg/mL) | > 50 | 37 (≈ 12.7 µg/mL)
